Assays:
[1] = molecular target: T1, PD-L1 expressed on the cell surface (MC38 hPD-L1) (Homo sapiens, UniProt Q9NZQ7); experiment: Internalization of cell surface PD-L1, flow cytometry with fluorescent staining; type: cell-based; details: MC38 hPD-L1 cells, 1 µM, 4 hours; untreated 90% to 99%
T1 construct: expressed in transfected cells; host or cells: MC38 mouse colon cancer cell line expressing human PD-L1
Procedure: In order to evaluate the internalization of cell surface PD-L1 induced by the compounds of the present invention synthesized according to the above Preparation Examples, a flow cytometry experiment using fluorescent staining was conducted as described below.
Specifically, a mouse colon cancer cell line expressing human PD-L1 (MC38 hPD-L1) was seeded into a 24-well plate at a density of 5 x 10^5 cells per well, followed by treatment with Compounds 206 to 227 at a concentration of 1 µM and incubation for 4 hours. After 4 hours, the compound-treated MC38 hPD-L1 cells were collected and stained with PE anti-hPD-L1 fluorecence at room temperature for 30 minutes. The rate of PD-L1 expression on the cell surface was then quantified using flow cytometry.

PD-1/PD-L1 = PD-1/PD-L1 (Homo sapiens, UniProt Q9NZQ7); experiment: TR-FRET PD-1/PD-L1 binding inhibition at the molecular level (free proteins); details: Tag1-PD-L1 and Tag2-PD-1 proteins, twelve concentrations from 200 nM, 2 hours at room temperature, read-out: FRET assay (IC50)
Method in brief: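 HTRF read-out at 665/620 nm after 2 h at room temperature. Detection used anti-Tag1 Eu cryptate plus anti-Tag2 XL665 antibodies. Tagged PD-L1 and PD-1 proteins were pre-mixed with compound across twelve […] 1:2 dilutions starting at 200 nM.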

Chain of PD-1/PD-L1 (Q9NZQ7 19-238 limits assumed): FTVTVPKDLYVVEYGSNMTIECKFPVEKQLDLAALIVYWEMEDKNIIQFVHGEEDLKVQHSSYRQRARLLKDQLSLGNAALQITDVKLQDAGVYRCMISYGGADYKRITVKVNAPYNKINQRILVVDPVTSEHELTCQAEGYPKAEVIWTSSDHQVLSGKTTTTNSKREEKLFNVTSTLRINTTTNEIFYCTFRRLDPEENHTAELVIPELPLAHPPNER
T1 sequence (Q9NZQ7 19-290): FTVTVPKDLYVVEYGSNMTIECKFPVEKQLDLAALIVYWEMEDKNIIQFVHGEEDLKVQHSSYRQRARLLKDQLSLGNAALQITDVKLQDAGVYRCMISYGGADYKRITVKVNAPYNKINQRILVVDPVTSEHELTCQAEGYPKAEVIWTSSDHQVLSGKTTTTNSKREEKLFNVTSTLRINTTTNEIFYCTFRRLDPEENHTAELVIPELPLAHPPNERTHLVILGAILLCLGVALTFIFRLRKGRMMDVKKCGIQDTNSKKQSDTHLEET

Row | Cell surface PD-L1 expression level (%) [1] [%] | IC50 (PD-1/PD-L1) [nM] | SMILES
1 | 71.0 | < 10 | O=C(Nc1cccc(-c2cccc(NC(=O)c3cc4n(n3)CCC[C@H]4N3CC[C@@H](C(=O)O)C3)c2Cl)c1Cl)c1ccc(CNCCO)cn1 [Compound 209, (R)-1-((R)-2-((2,2'-dichloro-3'-(5-(((2-hydroxyethyl)amino)methyl)picolinamido)-[1,1'-biphenyl]-3-yl)carbamoyl)-4,5,6,7-tetrahydropyrazolo[1,5-a]pyridin-4-yl)pyrrolidine-3-carboxylic acid]
2 | 75.3 | < 10 | Cc1c(NC(=O)c2cc3n(n2)CCC[C@H]3N2CC[C@@H](C(=O)O)C2)cccc1-c1cccc(Nc2nc(C(F)F)nc3cc(CN4CC[C@@H](O)C4)cnc23)c1C [Compound 211, (R)-1-((R)-2-((3'-((2-(difluoromethyl)-7-(((R)-3-hydroxypyrrolidin-1-yl)methyl)pyrido[3,2-d]pyrimidin-4-yl)amino)-2,2'-dimethyl-[1,1'-biphenyl]-3-yl)carbamoyl)-4,5,6,7-tetrahydropyrazolo[1,5-a]pyridin-4-yl)pyrrolidine-3-carboxylic acid]
3 | – | 10 to 100 | CC(C)(N[C@H]1CCCn2nc(C(=O)Nc3cccc(-c4cccc(Nc5nc(C(F)(F)F)nc6cc(CN7CC[C@@H](O)C7)cnc56)c4Cl)c3Cl)cc21)C(=O)O [Compound 340, 2-(((S)-2-((2,2'-dichloro-3'-((7-(((R)-3-hydroxypyrrolidin-1-yl)methyl)-2-(trifluoromethyl)pyrido[3,2-d]pyrimidin-4-yl)amino)-[1,1'-biphenyl]-3-yl)carbamoyl)-4,5,6,7-tetrahydropyrazolo[1,5-a]pyridin-4-yl)amino)-2-methylpropanoic acid]
4 | – | 10 to 100 | CC(C)(N[C@@H]1CCCn2nc(C(=O)Nc3cccc(-c4cccc(Nc5nc(C(F)(F)F)nc6cc(CN7CC[C@@H](O)C7)cnc56)c4Cl)c3Cl)cc21)C(=O)O [Compound 341, 2-(((R)-2-((2,2'-dichloro-3'-((7-(((R)-3-hydroxypyrrolidin-1-yl)methyl)-2-(trifluoromethyl)pyrido[3,2-d]pyrimidin-4-yl)amino)-[1,1'-biphenyl]-3-yl)carbamoyl)-4,5,6,7-tetrahydropyrazolo[1,5-a]pyridin-4-yl)amino)-2-methylpropanoic acid]
5 | – | 10 to 100 | Cc1c(NC(=O)c2cc3n(n2)CCC[C@@H]3N2CCC(C(=O)O)CC2)cccc1-c1cccc(Nc2nc(C(F)(F)F)nc3cc(CN4CC[C@@H](O)C4)cnc23)c1C [Compound 342, 1-((S)-2-((3'-((7-(((R)-3-hydroxypyrrolidin-1-yl)methyl)-2-(trifluoromethyl)pyrido[3,2-d]pyrimidin-4-yl)amino)-2,2'-dimethyl-[1,1'-biphenyl]-3-yl)carbamoyl)-4,5,6,7-tetrahydropyrazolo[1,5-a]pyridin-4-yl)piperidine-4-carboxylic acid]
6 | – | 10 to 100 | Cc1c(NC(=O)c2cc3n(n2)CCC[C@@H]3N2CC[C@@H](O)C2)cccc1-c1cccc(Nc2nc(C(F)(F)F)nc3cc(CN4CC[C@@H](O)C4)cnc23)c1C [Compound 344]
7 | – | 10 to 100 | Cc1c(NC(=O)c2cc3n(n2)CCC[C@H]3N2CC[C@@H](O)C2)cccc1-c1cccc(Nc2nc(C(F)(F)F)nc3cc(CN4CC[C@@H](O)C4)cnc23)c1C [Compound 345]
8 | – | < 10 | CN[C@H]1CCCn2nc(C(=O)Nc3cccc(-c4cccc(Nc5nccc6cc(CN7CC[C@@H](O)C7)cnc56)c4C)c3C)cc21 [Compound 346, (S)-N-(3'-((3-(((R)-3-hydroxypyrrolidin-1-yl)methyl)-1,7-naphthyridin-8-yl)amino)-2,2'-dimethyl-[1,1'-biphenyl]-3-yl)-4-(methylamino)-4,5,6,7-tetrahydropyrazolo[1,5-a]pyridine-2-carboxamide]
9 | – | < 10 | CN[C@@H]1CCCn2nc(C(=O)Nc3cccc(-c4cccc(Nc5nccc6cc(CN7CC[C@@H](O)C7)cnc56)c4C)c3C)cc21 [Compound 347, (R)-N-(3'-((3-(((R)-3-hydroxypyrrolidin-1-yl)methyl)-1,7-naphthyridin-8-yl)amino)-2,2'-dimethyl-[1,1'-biphenyl]-3-yl)-4-(methylamino)-4,5,6,7-tetrahydropyrazolo[1,5-a]pyridine-2-carboxamide]
10 | – | < 10 | CN[C@H]1CCCn2nc(C(=O)Nc3cccc(-c4cccc(NC(=O)c5ccc(CN6CC[C@@H](O)C6)cn5)c4C)c3C)cc21 [Compound 348, (S)-N-(3'-(5-(((R)-3-hydroxypyrrolidin-1-yl)methyl)picolinamido)-2,2'-dimethyl-[1,1'-biphenyl]-3-yl)-4-(methylamino)-4,5,6,7-tetrahydropyrazolo[1,5-a]pyridine-2-carboxamide]
11 | – | 10 to 100 | CN[C@@H]1CCCn2nc(C(=O)Nc3cccc(-c4cccc(NC(=O)c5ccc(CN6CC[C@@H](O)C6)cn5)c4C)c3C)cc21 [Compound 349, (R)-N-(3'-(5-(((R)-3-hydroxypyrrolidin-1-yl)methyl)picolinamido)-2,2'-dimethyl-[1,1'-biphenyl]-3-yl)-4-(methylamino)-4,5,6,7-tetrahydropyrazolo[1,5-a]pyridine-2-carboxamide]
12 | – | 10 to 100 | CN[C@H]1CCCn2nc(C(=O)Nc3cccc(-c4cccc(NC(=O)c5ccc(CN6CC[C@@H](O)C6)cn5)c4Cl)c3Cl)cc21 [Compound 350, (S)-N-(2,2'-dichloro-3'-(5-(((R)-3-hydroxypyrrolidin-1-yl)methyl)picolinamido)-[1,1'-biphenyl]-3-yl)-4-(methylamino)-4,5,6,7-tetrahydropyrazolo[1,5-a]pyridine-2-carboxamide]
13 | – | 10 to 100 | CN[C@@H]1CCCn2nc(C(=O)Nc3cccc(-c4cccc(NC(=O)c5ccc(CN6CC[C@@H](O)C6)cn5)c4Cl)c3Cl)cc21 [Compound 351, (R)-N-(2,2'-dichloro-3'-(5-(((R)-3-hydroxypyrrolidin-1-yl)methyl)picolinamido)-[1,1'-biphenyl]-3-yl)-4-(methylamino)-4,5,6,7-tetrahydropyrazolo[1,5-a]pyridine-2-carboxamide]
14 | – | 10 to 100 | CN[C@H]1CCCn2nc(C(=O)Nc3cccc(-c4cccc(Nc5nc(C(F)(F)F)nc6cc(CN7CC[C@@H](O)C7)cnc56)c4Cl)c3Cl)cc21 [Compound 352, (S)-N-(2,2'-dichloro-3'-((7-(((R)-3-hydroxypyrrolidin-1-yl)methyl)-2-(trifluoromethyl)pyrido[3,2-d]pyrimidin-4-yl)amino)-[1,1'-biphenyl]-3-yl)-4-(methylamino)-4,5,6,7-tetrahydropyrazolo[1,5-a]pyridine-2-carboxamide]
15 | – | 10 to 100 | CN[C@@H]1CCCn2nc(C(=O)Nc3cccc(-c4cccc(Nc5nc(C(F)(F)F)nc6cc(CN7CC[C@@H](O)C7)cnc56)c4Cl)c3Cl)cc21 [Compound 353, (R)-N-(2,2'-dichloro-3'-((7-(((R)-3-hydroxypyrrolidin-1-yl)methyl)-2-(trifluoromethyl)pyrido[3,2-d]pyrimidin-4-yl)amino)-[1,1'-biphenyl]-3-yl)-4-(methylamino)-4,5,6,7-tetrahydropyrazolo[1,5-a]pyridine-2-carboxamide]
16 | – | 10 to 100 | CN[C@H]1CCCn2nc(C(=O)Nc3cccc(-c4cccc(Nc5nc(C(F)F)nc6cc(CN7CC[C@@H](O)C7)cnc56)c4Cl)c3Cl)cc21 [Compound 354, (S)-N-(2,2'-dichloro-3'-((2-(difluoromethyl)-7-(((R)-3-hydroxypyrrolidin-1-yl)methyl)pyrido[3,2-d]pyrimidin-4-yl)amino)-[1,1'-biphenyl]-3-yl)-4-(methylamino)-4,5,6,7-tetrahydropyrazolo[1,5-a]pyridine-2-carboxamide]
17 | – | 10 to 100 | CN[C@@H]1CCCn2nc(C(=O)Nc3cccc(-c4cccc(Nc5nc(C(F)F)nc6cc(CN7CC[C@@H](O)C7)cnc56)c4Cl)c3Cl)cc21 [Compound 355, (R)-N-(2,2'-dichloro-3'-((2-(difluoromethyl)-7-(((R)-3-hydroxypyrrolidin-1-yl)methyl)pyrido[3,2-d]pyrimidin-4-yl)amino)-[1,1'-biphenyl]-3-yl)-4-(methylamino)-4,5,6,7-tetrahydropyrazolo[1,5-a]pyridine-2-carboxamide]
18 | – | 10 to 100 | CN[C@H]1CCCn2nc(C(=O)Nc3cccc(-c4cccc(Nc5nc(C(F)(F)F)nc6cccnc56)c4Cl)c3Cl)cc21 [Compound 356, (S)-N-(2,2'-dichloro-3'-((2-(trifluoromethyl)pyrido[3,2-d]pyrimidin-4-yl)amino)-[1,1'-biphenyl]-3-yl)-4-(methylamino)-4,5,6,7-tetrahydropyrazolo[1,5-a]pyridine-2-carboxamide]
19 | – | 10 to 100 | CN[C@@H]1CCCn2nc(C(=O)Nc3cccc(-c4cccc(Nc5nc(C(F)(F)F)nc6cccnc56)c4Cl)c3Cl)cc21 [Compound 357, (R)-N-(2,2'-dichloro-3'-((2-(trifluoromethyl)pyrido[3,2-d]pyrimidin-4-yl)amino)-[1,1'-biphenyl]-3-yl)-4-(methylamino)-4,5,6,7-tetrahydropyrazolo[1,5-a]pyridine-2-carboxamide]

Source: patent publication EP4755888A1 (ILAb Co., Ltd., priority 2023, dated 2025)
